Molecular target: ROCK2 (human) (UniProt O75116)
Experiment: Inhibition of ROCK2 Kinase Activity

Chain of ROCK2 (human) (O75116 whole entry, looked up): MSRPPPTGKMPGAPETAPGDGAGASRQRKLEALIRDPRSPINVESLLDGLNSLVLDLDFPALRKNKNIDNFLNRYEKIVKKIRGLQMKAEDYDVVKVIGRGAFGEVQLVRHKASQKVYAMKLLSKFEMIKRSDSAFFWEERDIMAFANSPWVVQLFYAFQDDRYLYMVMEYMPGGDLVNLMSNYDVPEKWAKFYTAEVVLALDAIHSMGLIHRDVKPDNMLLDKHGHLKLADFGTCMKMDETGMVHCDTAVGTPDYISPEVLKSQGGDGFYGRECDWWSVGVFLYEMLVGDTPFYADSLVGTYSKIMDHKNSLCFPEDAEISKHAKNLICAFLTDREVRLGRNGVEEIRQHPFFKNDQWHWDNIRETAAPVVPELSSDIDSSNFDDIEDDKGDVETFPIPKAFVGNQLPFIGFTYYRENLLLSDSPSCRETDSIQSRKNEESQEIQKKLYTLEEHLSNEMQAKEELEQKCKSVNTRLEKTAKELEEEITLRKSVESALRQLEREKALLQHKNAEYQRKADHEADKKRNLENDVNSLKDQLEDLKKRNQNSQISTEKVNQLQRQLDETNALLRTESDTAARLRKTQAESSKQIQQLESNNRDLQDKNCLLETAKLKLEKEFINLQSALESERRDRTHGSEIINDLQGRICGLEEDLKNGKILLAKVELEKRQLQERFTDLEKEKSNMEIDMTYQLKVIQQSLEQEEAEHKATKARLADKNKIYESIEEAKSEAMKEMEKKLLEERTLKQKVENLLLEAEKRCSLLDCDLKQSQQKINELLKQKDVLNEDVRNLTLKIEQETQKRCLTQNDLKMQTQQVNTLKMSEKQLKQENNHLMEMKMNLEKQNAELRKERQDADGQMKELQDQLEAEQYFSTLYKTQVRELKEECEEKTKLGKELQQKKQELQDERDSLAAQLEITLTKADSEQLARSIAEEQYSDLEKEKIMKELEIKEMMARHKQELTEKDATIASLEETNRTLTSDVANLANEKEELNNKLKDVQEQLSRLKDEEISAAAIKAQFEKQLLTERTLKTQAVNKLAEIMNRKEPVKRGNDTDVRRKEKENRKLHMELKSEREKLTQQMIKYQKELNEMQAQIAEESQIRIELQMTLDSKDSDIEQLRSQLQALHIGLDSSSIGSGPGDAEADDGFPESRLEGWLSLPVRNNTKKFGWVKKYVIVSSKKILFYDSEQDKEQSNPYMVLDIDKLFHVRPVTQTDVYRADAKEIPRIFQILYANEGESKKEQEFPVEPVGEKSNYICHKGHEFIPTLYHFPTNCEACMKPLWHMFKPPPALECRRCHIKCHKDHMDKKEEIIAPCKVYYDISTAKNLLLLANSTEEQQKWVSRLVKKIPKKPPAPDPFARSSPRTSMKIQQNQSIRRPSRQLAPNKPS

| Structure (SMILES) | IC50 |
| --- | --- |
| CCS(=O)(=O)NCC(N)c1ccc(C(=O)Nc2ccncc2)cc1 (stereo unspecified) | < 500 nM |
| NC(CC(=O)N1CCC(Cc2ccccc2)CC1)c1ccc(C(=O)Nc2ccncc2)cc1 (stereo unspecified) | < 500 nM |
| NC(CC(=O)N1CCCC1c1ccc(Cl)cc1)c1ccc(C(=O)Nc2ccncc2)cc1 (stereo unspecified) | < 500 nM |
| CCNC(=O)C(N)c1ccc(C(=O)Nc2ccncc2)cc1 (stereo unspecified) | 500 to 5000 nM |
| COCCNC(=O)C(N)c1ccc(C(=O)Nc2ccncc2)cc1 (stereo unspecified) | 500 to 5000 nM |
| CN(CC(N)c1ccc(C(=O)Nc2ccncc2)cc1)S(=O)(=O)c1cccc(Cl)c1 (stereo unspecified) | 500 to 5000 nM |
| NC(CC(=O)N1CCCC(CO)C1)c1ccc(C(=O)Nc2ccncc2)cc1 (stereo unspecified) | < 500 nM |
| NC(C(=O)NCCc1cccs1)c1ccc(C(=O)Nc2ccncc2)cc1 (stereo unspecified) | < 500 nM |
| CC1CN(C(=O)CC(N)c2ccc(C(=O)Nc3ccncc3)cc2)CC(C)O1 (stereo unspecified) | < 500 nM |
| CC1CCC(NC(=O)C(N)c2ccc(C(=O)Nc3ccncc3)cc2)CC1 (stereo unspecified) | 500 to 5000 nM |
| NC(CC(=O)N1CCN(c2ccccc2)CC1)c1ccc(C(=O)Nc2ccncc2)cc1 (stereo unspecified) | < 500 nM |
| COc1ccc(CN2CCN(C(=O)C(N)c3ccc(C(=O)Nc4ccncc4)cc3)CC2)cc1 (stereo unspecified) | 500 to 5000 nM |
| NC(CNS(=O)(=O)c1cccc(Oc2ccccc2)c1)c1ccc(C(=O)Nc2ccncc2)cc1 (stereo unspecified) | 500 to 5000 nM |
| N[C@H](C(=O)NCc1ccccc1)c1ccc(C(=O)Nc2ccncc2)cc1 | < 500 nM |
| CN(CC(N)c1ccc(C(=O)Nc2ccncc2)cc1)S(=O)(=O)c1ccccc1 (stereo unspecified) | 500 to 5000 nM |
| NC(CNS(=O)(=O)c1ccc(Cl)cc1)c1ccc(C(=O)Nc2ccncc2)cc1 (stereo unspecified) | < 500 nM |
| CN(C)CCNC(=O)C(N)c1ccc(C(=O)Nc2ccncc2)cc1 (stereo unspecified) | 500 to 5000 nM |
| COC(=O)c1ccc2c(c1)CCN(C(=O)CC(N)c1ccc(C(=O)Nc3ccncc3)cc1)C2 (stereo unspecified) | 500 to 5000 nM |
| COc1ccc(C2c3[nH]c4ccccc4c3CCN2C(=O)CC(N)c2ccc(C(=O)Nc3ccncc3)cc2)cc1Br (stereo unspecified) | 500 to 5000 nM |
| NC(CC(=O)N1CCOCC1)c1ccc(C(=O)Nc2ccncc2)cc1 (stereo unspecified) | < 500 nM |
| CCC(NC(=O)C(N)c1ccc(C(=O)Nc2ccncc2)cc1)c1ccccc1 (stereo unspecified) | < 500 nM |
| NC(C(=O)NCCn1cccn1)c1ccc(C(=O)Nc2ccncc2)cc1 (stereo unspecified) | 500 to 5000 nM |
| COC(=O)c1ccc(C2CCCCN2C(=O)CC(N)c2ccc(C(=O)Nc3ccncc3)cc2)cc1 (stereo unspecified) | < 500 nM |
| N[C@@H](CC(=O)N1CCC[C@@H]1c1cccc(F)c1)c1ccc(C(=O)Nc2ccncc2)cc1 | < 500 nM |
| N[C@H](CC(=O)N1CCC[C@@H]1c1cccc(F)c1)c1ccc(C(=O)Nc2ccncc2)cc1 | < 500 nM |
| CC(NC(=O)C(N)c1ccc(C(=O)Nc2ccncc2)cc1)c1ccccc1 (stereo unspecified) | < 500 nM |

| Structure (SMILES) | IC50 |
| --- | --- |
| COc1ccc(S(=O)(=O)NCC(N)c2ccc(C(=O)Nc3ccncc3)cc2)cc1 (stereo unspecified) | < 500 nM |
| COc1ccc(CN2CCN(C(=O)CC(N)c3ccc(C(=O)Nc4ccncc4)cc3)CC2)cc1 (stereo unspecified) | 500 to 5000 nM |
| NC(CC(=O)N1CCOCC1c1ccc(Cl)cc1)c1ccc(C(=O)Nc2ccncc2)cc1 (stereo unspecified) | < 500 nM |
| NC(C(=O)Nc1ccccc1)c1ccc(C(=O)Nc2ccncc2)cc1 (stereo unspecified) | 500 to 5000 nM |
| NC(C(=O)NCCc1ccc(F)cc1)c1ccc(C(=O)Nc2ccncc2)cc1 (stereo unspecified) | < 500 nM |
| NC(CC(=O)N1CCCC1c1ccc(F)cc1F)c1ccc(C(=O)Nc2ccncc2)cc1 (stereo unspecified) | < 500 nM |
| COc1ccc(NC(=O)C(N)c2ccc(C(=O)Nc3ccncc3)cc2)cc1 (stereo unspecified) | < 500 nM |
| CC1CC(C)CN(C(=O)CC(N)c2ccc(C(=O)Nc3ccncc3)cc2)C1 (stereo unspecified) | < 500 nM |
| NC(CC(=O)N1CCN(C(=O)c2ccco2)CC1)c1ccc(C(=O)Nc2ccncc2)cc1 (stereo unspecified) | < 500 nM |
| Cc1cccc(S(=O)(=O)NCC(N)c2ccc(C(=O)Nc3ccncc3)cc2)c1 (stereo unspecified) | < 500 nM |
| NC(CC(=O)N1CCc2ccc(Cl)cc2C1)c1ccc(C(=O)Nc2ccncc2)cc1 (stereo unspecified) | < 500 nM |
| NC(CNS(=O)(=O)Cc1ccccc1)c1ccc(C(=O)Nc2ccncc2)cc1 (stereo unspecified) | < 500 nM |
| NC(C(=O)NCc1ccco1)c1ccc(C(=O)Nc2ccncc2)cc1 (stereo unspecified) | < 500 nM |
| NC(CC(=O)N1CCN(CCO)CC1)c1ccc(C(=O)Nc2ccncc2)cc1 (stereo unspecified) | < 500 nM |
| NC(CC(=O)N1CCC(O)(c2ccccc2)CC1)c1ccc(C(=O)Nc2ccncc2)cc1 (stereo unspecified) | < 500 nM |
| NC(CC(=O)N1CCN(Cc2ccccc2F)CC1)c1ccc(C(=O)Nc2ccncc2)cc1 (stereo unspecified) | < 500 nM |
| NC(CC(=O)N1CCOCC1c1ccc(F)cc1)c1ccc(C(=O)Nc2ccncc2)cc1 (stereo unspecified) | < 500 nM |
| Cc1nn(C)c(Cl)c1S(=O)(=O)NCC(N)c1ccc(C(=O)Nc2ccncc2)cc1 (stereo unspecified) | 500 to 5000 nM |
| NC(CNS(=O)(=O)c1cccc(-c2ccccc2)c1)c1ccc(C(=O)Nc2ccncc2)cc1 (stereo unspecified) | 500 to 5000 nM |
| CC1CC(C)CN(C(=O)C(N)c2ccc(C(=O)Nc3ccncc3)cc2)C1 (stereo unspecified) | < 500 nM |
| Cc1ccc(CN2CCC(NC(=O)C(N)c3ccc(C(=O)Nc4ccncc4)cc3)CC2)s1 (stereo unspecified) | 500 to 5000 nM |
| NC(C(=O)NCc1ccccc1)c1ccc(C(=O)Nc2ccncc2)cc1 (stereo unspecified) | < 500 nM |
| CC(C)N1CCN(C(=O)C(N)c2ccc(C(=O)Nc3ccncc3)cc2)CC1 (stereo unspecified) | 500 to 5000 nM |
| NC(C(=O)N1CCN(Cc2ccccc2F)CC1)c1ccc(C(=O)Nc2ccncc2)cc1 (stereo unspecified) | 500 to 5000 nM |
| CS(=O)(=O)NCC(N)c1ccc(C(=O)Nc2ccncc2)cc1 (stereo unspecified) | < 500 nM |

— the Kinase Knowledgebase extract (Sharma et al. 2016)
